Earlier results, collected in patent US6656923B1, “Uncomplexed cyclodextrin compositions for odor and wrinkle control” (The Procter & Gamble Company, priority 1997, dated 2003).

For `ClC=CC[N+]12CN3CN(CN(C3)C1)C2.[Cl-]` [Dowicil 200, 1-(3-Chlorallyl)-3,5,7-triaza-1-azoniaadamantane chloride], the “solubility in water” value is listed as “freely soluble in water”.
